Tests used:
[1] = system: U266 cells; test: U266 xenograft murine model; type: in vivo, BALB/c nude mice
Protocol: All mice used in this study were bred and maintained in a specific pathogen-free environment. BALB/c nude mice (6 to 7 weeks old) were obtained from the Shanghai Laboratory Animal Center (Shanghai, China), and maintained and monitored in a specific pathogen-free environment. All animal studies were conducted according to protocols approved by the Animal Ethics Committee of our institute. The mice were injected subcutaneously with 1×10^7 U266 cells in 100 µL RPMI-1640 media into the right flank. Treatments were started when the tumors reached a palpable size. The control group received vehicle (0.8% DMSO/18% Cremophor/8% Ethanol in normal saline), while the other two groups received intraperitoneally injection of 6-OAP (50 or 75 mg/kg per day, five times a week for 4 weeks). Caliper measurements of the longest perpendicular tumor diameters were performed twice a week to estimate the tumor volume, using the following formula: 4π/3× (width/2)^2× (length/2), representing the 3-dimensional volume of an ellipse. Animals were sacrificed when tumors reached 2 cm or if the mice appeared moribund to prevent unnecessary morbidity to the mice. At the time of the animals' death, tumors were excised; cells were separated and subjected to immunofluorescence analysis or lyzed for Western blotting.
Figure 6 In vivo therapeutic efficacy of 6-OAP on human MM murine model. Nude mice were given subcutaneous inoculations in the right flank with 1×10^7 U266 cells. When the tumors reached a palpable size, the mice were treated intraperitoneally with vehicle or 6-OAP (50 or 75 mg/kg, 5 times a week for 4 weeks). […] (C) Survival curve of control and 6-OAP-treated mice. […] (E) Tumor samples were harvested from mice treated with vehicle or 50 mg/kg 6-OAP and subjected to immunofluorescence analysis using an anti-α-tubulin antibody and DAPI. (F) Tumor tissues were harvested from mice treated with vehicle or 50 mg/kg 6-OAP, whole-tissue lysates were subjected to Western blotting using an anti-cyclin B1 antibody. (G) The concentration-time profiles of 6-OAP after intravenous (30 mg/kg) or intraperitoneal (40 mg/kg) injection of 6-OAP in Sprague-Dawley rats.

[2] = system: MM.1S cells; test: MTT assay with IL-6, IGF-I or BMSCs; type: cell-based, human; details: 48 h
Protocol: U266, RPMI 8226 cells (1×10^4), primary CD138+ cells, PBMCs (5×10^4), and BMSCs (1×10^4) were cultured in 96-well dishes and incubated without or with 6-OAP at indicated concentration for 48 h. MM.1S and MM.1R cells (2×10^4) were seeded into 96-well dishes and pre-cultured for 24 h, then treated with 6-OAP for 48 h. Cell proliferation was determined by MTT assay. Cell viability was estimated by trypan blue dye exclusion.
Figure 5 6-OAP overcomes the protective effects of IL-6, IGF-I and BMSCs on MM cells. (A and B) MM.1S cells were cultured for 48 h with indicated concentrations of 6-OAP at the presence or absence of IL-6 (A) or IGF-I (B). Cell proliferation was assessed by MTT assay. (C) MM.1S and/or BMSCs cells were cultured for 48 h with indicated concentrations of 6-OAP. Cell proliferation was assessed by MTT assay. *p<.01,** p<.05. (D) MM.1S cells were serum starved for 2 h, then co-cultured without or with 6-OAP at 5 µM for 12 h, followed by stimulation with IL-6 at 10 ng/ml for indicated time points (upper panel), or IL-6 at 10 ng/ml for 1 h, followed by treatment with 6-OAP at indicated concentration for 12 h (lower panel). Whole-cell extracts were prepared and examined by Western blotting using antibodies against pJak2, pStat3, Stat3 or β-actin. (E) MM.1S cells were serum starved for 2 h, then co-cultured without or with 6-OAP (5 µM) for 12 h, followed by stimulation with IGF-I at 50 ng/ml for indicated time points (upper panel), or stimulated with IGF-I at 50 ng/ml for 1 h, followed by treatment with 6-OAP at indicated concentration for 12 h (lower panel). Whole-cell extracts were prepared and examined by western blotting using antibodies against pPDK1, pAkt, Akt or β-actin. (F) MM.1S cells were serum starved for 2 h, then co-cultured without or with 6-OAP (5 µM) for 12 h, followed by stimulation with TNF-α at 5 ng/ml for indicated time points. Whole-cell extracts were prepared and examined by Western blotting using indicated antibodies.

CC=C(C)C(=O)OC1C2C(CC(C)C3C=CC(=O)C31C)OC(=O)C2C (centres unmarked) [6-OAP, 6-O-angeloylplenolin]
cyclin B1 in tumor tissues ([1]; 50 mg/kg, Western blotting, vs control mice): accumulated | spindle formation in tumor samples ([1]; 50 mg/kg, immunofluorescence, anti-α-tubulin): apparent spindle formation was detected | tumor growth ([1]; 50 and 75 mg/kg ip, five times a week for four weeks, vs vehicle, P<.0001): significantly inhibited tumor growth | body weight of mice ([1]; 50 or 75 mg/kg ip, 4 weeks): did not reduce body weight | survival ([1]; 50 or 75 mg/kg ip, vs vehicle control): prolonged | IGF-I-caused cell proliferation ([2]; IGF-I 10 to 50 ng/ml, 6-OAP 5 to 7.5 µM): abolished IGF-I-caused cell proliferation | IL-6-promoted proliferation ([2]; IL-6 2 to 10 ng/ml, 6-OAP 5 to 7.5 µM): drastically reversed this effect | BMSCs-facilitated MM.1S cell expansion ([2]; co-incubation with BMSCs, 6-OAP 5 or 7.5 µM): significantly inhibited this effect

Source: paper PMC3130785, “Small Compound 6-O-Angeloylplenolin Induces Mitotic Arrest and Exhibits Therapeutic Potentials in Multiple Myeloma” (PLoS ONE, 2011)
